{
  "source": "PubChem BioAssay AID434974",
  "about": "(The Scripps Research Institute Molecular Screening Center, 2010)",
  "experiment_in_all_cases": "off-target binding across PDSP receptor panel, profiling panel, selectivity assay for NOX1 inhibitor project, biochemical, radioligand binding (AID 434974)",
  "key": {"[1]": {"target": "5-hydroxytryptamine receptor 2B (Homo sapiens) (UniProt P41595)", "sequence (P41595 whole entry, looked up)": "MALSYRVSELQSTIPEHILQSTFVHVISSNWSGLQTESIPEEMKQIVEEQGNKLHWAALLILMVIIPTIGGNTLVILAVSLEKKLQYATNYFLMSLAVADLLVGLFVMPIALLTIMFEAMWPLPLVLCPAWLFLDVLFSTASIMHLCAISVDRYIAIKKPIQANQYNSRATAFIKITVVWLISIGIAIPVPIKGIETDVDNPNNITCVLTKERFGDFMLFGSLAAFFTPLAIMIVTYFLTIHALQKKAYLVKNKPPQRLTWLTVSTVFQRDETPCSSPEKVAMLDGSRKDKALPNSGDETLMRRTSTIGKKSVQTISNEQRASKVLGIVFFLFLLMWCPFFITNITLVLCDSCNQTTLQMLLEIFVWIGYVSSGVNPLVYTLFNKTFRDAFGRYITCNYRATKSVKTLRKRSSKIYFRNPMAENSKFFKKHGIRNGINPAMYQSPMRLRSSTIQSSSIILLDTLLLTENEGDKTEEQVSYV", "conditions": "receptor displacement, Serotonin receptor 5ht2b, at 10 µM, active compounds read high"}, "[2]": {"tested_on": "Adrenergic receptor Alpha1A", "conditions": "receptor displacement, at 10 µM, active compounds read high"}, "[3]": {"tested_on": "Adrenergic receptor Alpha1B", "conditions": "receptor displacement, at 10 µM, active compounds read high"}, "[4]": {"tested_on": "Adrenergic receptor Alpha1D", "conditions": "receptor displacement, at 10 µM, active compounds read high"}, "[5]": {"tested_on": "Adrenergic receptor Beta1", "conditions": "receptor displacement, at 10 µM, active compounds read high"}, "[6]": {"tested_on": "Adrenergic receptor Beta3", "conditions": "receptor displacement, at 10 µM, active compounds read high"}, "[7]": {"target": "Alpha-2A adrenergic receptor (Homo sapiens) (UniProt P08913)", "sequence (P08913 whole entry, looked up)": "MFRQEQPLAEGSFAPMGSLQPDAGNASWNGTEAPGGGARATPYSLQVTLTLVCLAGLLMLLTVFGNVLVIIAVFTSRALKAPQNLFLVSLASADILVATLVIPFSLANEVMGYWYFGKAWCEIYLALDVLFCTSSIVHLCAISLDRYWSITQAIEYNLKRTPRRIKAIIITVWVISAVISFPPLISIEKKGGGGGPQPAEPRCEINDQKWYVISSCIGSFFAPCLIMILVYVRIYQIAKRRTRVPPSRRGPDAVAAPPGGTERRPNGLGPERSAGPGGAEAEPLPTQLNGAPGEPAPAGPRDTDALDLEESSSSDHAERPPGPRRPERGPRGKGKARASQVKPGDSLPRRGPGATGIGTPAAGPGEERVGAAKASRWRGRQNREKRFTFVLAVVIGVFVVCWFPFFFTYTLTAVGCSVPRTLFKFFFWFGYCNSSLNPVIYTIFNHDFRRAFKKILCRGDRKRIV", "conditions": "receptor displacement, Adrenergic receptor Alpha2A, at 10 µM, active compounds read high"}, "[8]": {"target": "Alpha-2B adrenergic receptor (Homo sapiens) (UniProt P18089)", "sequence (P18089 whole entry, looked up)": "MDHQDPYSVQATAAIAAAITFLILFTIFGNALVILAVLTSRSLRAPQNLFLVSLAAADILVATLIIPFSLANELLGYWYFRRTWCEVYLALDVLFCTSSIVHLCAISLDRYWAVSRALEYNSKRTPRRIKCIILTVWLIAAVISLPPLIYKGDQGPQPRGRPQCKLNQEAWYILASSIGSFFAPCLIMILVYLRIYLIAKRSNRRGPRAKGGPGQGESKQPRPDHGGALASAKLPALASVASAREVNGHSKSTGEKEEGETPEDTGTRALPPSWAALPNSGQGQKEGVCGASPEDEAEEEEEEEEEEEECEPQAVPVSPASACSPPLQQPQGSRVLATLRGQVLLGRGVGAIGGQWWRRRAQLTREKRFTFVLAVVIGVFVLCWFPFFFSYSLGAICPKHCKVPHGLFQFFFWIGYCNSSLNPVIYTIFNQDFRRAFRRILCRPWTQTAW", "conditions": "receptor displacement, Adrenergic receptor Alpha2B, at 10 µM, active compounds read high"}, "[9]": {"target": "Alpha-2C adrenergic receptor (Homo sapiens) (UniProt P18825)", "sequence (P18825 whole entry, looked up)": "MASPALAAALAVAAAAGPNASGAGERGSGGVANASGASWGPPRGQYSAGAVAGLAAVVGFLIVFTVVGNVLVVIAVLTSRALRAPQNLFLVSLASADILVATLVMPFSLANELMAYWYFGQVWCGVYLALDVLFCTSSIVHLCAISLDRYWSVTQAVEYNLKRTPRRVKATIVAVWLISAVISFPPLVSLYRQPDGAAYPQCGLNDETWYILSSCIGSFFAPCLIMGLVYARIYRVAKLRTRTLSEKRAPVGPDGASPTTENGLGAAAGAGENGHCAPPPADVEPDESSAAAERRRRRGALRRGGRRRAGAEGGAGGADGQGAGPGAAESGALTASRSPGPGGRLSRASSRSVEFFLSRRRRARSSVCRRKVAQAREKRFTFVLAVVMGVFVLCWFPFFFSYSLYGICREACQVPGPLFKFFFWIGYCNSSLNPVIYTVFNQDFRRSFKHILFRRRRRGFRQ", "conditions": "receptor displacement, Adrenergic receptor Alpha2C, at 10 µM, active compounds read high"}, "BZP Rat Brain Site": {"tested_on": "BZP Rat Brain Site", "conditions": "receptor displacement, at 10 µM, active compounds read high"}, "[10]": {"target": "Beta-2 adrenergic receptor (Homo sapiens) (UniProt P07550)", "sequence (P07550 whole entry, looked up)": "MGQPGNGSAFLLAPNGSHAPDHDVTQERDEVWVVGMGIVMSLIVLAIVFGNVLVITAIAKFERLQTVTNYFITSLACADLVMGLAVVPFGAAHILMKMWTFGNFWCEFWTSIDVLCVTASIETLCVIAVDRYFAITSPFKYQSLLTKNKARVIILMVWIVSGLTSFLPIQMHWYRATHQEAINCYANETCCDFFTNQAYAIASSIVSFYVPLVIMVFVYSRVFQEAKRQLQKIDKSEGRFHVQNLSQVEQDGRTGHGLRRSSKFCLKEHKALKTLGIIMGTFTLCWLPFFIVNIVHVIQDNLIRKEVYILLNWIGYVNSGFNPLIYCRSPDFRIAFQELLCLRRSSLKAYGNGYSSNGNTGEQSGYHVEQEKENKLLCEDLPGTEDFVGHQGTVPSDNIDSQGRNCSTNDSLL", "conditions": "receptor displacement, Adrenergic receptor Beta2, at 10 µM, active compounds read high"}, "[11]": {"tested_on": "Biogenic amine transporter DAT", "conditions": "receptor displacement, at 10 µM, active compounds read high"}, "[12]": {"tested_on": "Biogenic amine transporter NET", "conditions": "receptor displacement, at 10 µM, active compounds read high"}, "[13]": {"tested_on": "Biogenic amine transporter SERT", "conditions": "receptor displacement, at 10 µM, active compounds read high"}, "Ca+ Channel": {"tested_on": "Ca+ Channel", "conditions": "receptor displacement, at 10 µM, active compounds read high"}, "[14]": {"target": "Cannabinoid receptor 2 (Homo sapiens) (UniProt P34972)", "sequence (P34972 whole entry, looked up)": "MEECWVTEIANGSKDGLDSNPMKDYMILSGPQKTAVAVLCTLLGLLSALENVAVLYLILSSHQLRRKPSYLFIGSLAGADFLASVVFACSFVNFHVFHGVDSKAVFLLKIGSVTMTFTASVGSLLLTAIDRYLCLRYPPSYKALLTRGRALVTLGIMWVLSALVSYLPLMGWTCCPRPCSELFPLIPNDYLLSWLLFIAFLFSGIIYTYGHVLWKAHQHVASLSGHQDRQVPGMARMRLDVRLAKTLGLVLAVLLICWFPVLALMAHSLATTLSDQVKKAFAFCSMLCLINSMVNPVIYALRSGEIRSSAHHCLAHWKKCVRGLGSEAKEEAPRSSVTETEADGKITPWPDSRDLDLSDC", "conditions": "receptor displacement, Cannabinoid receptor CB2, at 10 µM, active compounds read high"}, "Cannabinoid receptor CB1": {"tested_on": "Cannabinoid receptor CB1", "conditions": "receptor displacement, at 10 µM, active compounds read high"}, "[15]": {"target": "D(1A) dopamine receptor (Homo sapiens) (UniProt P21728)", "sequence (P21728 whole entry, looked up)": "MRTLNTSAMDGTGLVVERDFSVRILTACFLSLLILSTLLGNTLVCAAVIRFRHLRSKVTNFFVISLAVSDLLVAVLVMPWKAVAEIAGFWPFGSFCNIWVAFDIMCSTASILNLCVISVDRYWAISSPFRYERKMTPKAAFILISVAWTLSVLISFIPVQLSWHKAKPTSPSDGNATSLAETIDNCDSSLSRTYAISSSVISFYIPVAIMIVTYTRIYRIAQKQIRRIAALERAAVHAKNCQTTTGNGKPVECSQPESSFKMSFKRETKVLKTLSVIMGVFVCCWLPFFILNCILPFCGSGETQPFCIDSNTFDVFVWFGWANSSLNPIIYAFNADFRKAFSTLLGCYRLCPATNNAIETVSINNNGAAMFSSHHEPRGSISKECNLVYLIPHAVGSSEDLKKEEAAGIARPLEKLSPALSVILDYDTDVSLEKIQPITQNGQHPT", "conditions": "receptor displacement, Dopamine receptor D1, at 10 µM, active compounds read high"}, "[16]": {"target": "D(1B) dopamine receptor (Homo sapiens) (UniProt P21918)", "sequence (P21918 whole entry, looked up)": "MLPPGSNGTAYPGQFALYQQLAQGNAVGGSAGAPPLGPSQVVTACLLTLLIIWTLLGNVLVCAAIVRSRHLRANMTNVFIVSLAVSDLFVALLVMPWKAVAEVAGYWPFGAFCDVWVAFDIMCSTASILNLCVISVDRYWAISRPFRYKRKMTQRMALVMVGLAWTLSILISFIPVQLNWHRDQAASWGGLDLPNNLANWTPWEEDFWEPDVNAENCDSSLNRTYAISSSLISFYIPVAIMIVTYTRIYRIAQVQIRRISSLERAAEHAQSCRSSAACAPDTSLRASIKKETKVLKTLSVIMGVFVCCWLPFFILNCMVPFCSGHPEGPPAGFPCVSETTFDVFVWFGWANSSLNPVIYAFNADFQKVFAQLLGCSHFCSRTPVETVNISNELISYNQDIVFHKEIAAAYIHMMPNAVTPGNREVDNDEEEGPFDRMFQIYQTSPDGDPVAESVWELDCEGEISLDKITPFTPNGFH", "conditions": "receptor displacement, Dopamine receptor D5, at 10 µM, active compounds read high"}, "[17]": {"target": "D(3) dopamine receptor (Homo sapiens) (UniProt P35462)", "sequence (P35462 whole entry, looked up)": "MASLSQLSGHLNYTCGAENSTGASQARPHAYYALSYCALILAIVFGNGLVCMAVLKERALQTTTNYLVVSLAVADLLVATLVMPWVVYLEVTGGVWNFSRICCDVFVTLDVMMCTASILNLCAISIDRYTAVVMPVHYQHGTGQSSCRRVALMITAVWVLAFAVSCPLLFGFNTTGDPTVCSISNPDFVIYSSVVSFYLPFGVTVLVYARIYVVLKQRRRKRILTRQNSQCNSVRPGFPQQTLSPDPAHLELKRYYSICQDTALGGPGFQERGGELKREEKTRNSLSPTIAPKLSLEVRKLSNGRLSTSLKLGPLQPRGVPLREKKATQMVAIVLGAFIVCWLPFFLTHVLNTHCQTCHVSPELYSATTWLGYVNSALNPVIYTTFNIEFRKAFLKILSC", "conditions": "receptor displacement, Dopamine receptor D3, at 10 µM, active compounds read high"}, "[18]": {"target": "Delta-type opioid receptor (Homo sapiens) (UniProt P41143)", "sequence (P41143 whole entry, looked up)": "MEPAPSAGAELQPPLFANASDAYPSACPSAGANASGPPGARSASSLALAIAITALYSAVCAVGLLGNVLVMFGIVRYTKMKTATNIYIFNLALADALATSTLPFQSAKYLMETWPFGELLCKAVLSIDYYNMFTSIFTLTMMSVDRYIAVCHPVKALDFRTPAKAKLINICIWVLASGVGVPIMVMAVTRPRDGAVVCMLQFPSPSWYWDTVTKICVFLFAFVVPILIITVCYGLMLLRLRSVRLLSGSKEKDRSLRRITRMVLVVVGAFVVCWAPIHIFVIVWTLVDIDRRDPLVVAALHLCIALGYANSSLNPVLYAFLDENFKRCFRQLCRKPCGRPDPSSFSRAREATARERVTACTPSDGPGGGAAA", "conditions": "receptor displacement, Opioid receptor DOR, at 10 µM, active compounds read high"}, "Dopamine receptor D2": {"tested_on": "Dopamine receptor D2", "conditions": "receptor displacement, at 10 µM, active compounds read high"}, "Dopamine receptor D4": {"tested_on": "Dopamine receptor D4", "conditions": "receptor displacement, at 10 µM, active compounds read high"}, "GABA receptor GABAa a1": {"tested_on": "GABA receptor GABAa a1", "conditions": "receptor displacement, at 10 µM, active compounds read high"}, "GABA receptor GABAa": {"tested_on": "GABA receptor GABAa", "conditions": "receptor displacement, at 10 µM, active compounds read high"}, "GABA receptor PBR": {"tested_on": "GABA receptor PBR", "conditions": "receptor displacement, at 10 µM, active compounds read high"}, "[19]": {"tested_on": "Glutamate receptor NMDA PCP site", "conditions": "receptor displacement, at 10 µM, active compounds read high"}, "Histamine receptor H1": {"tested_on": "Histamine receptor H1", "conditions": "receptor displacement, at 10 µM, active compounds read high"}, "Histamine receptor H2": {"tested_on": "Histamine receptor H2", "conditions": "receptor displacement, at 10 µM, active compounds read high"}, "Histamine receptor H3": {"tested_on": "Histamine receptor H3", "conditions": "receptor displacement, at 10 µM, active compounds read high"}, "Histamine receptor H4": {"tested_on": "Histamine receptor H4", "conditions": "receptor displacement, at 10 µM, active compounds read high"}},
  "note": "Active and inactive are the calls of the source. The rule behind the calls is not given here.",
  "data": [
    {"smiles": "CN1c2ccccc2Sc2cc(N)ccc21", "values": [
      {"measurement": "inhibition", "setting": "[1]", "result": 84.3, "unit": "%"},
      {"measurement": "inhibition", "setting": "[2]", "result": "36.3% (inactive)"},
      {"measurement": "inhibition", "setting": "[3]", "result": "38.4% (inactive)"},
      {"measurement": "inhibition", "setting": "[4]", "result": "23.8% (inactive)"},
      {"measurement": "inhibition", "setting": "[5]", "result": "23.5% (inactive)"},
      {"measurement": "inhibition", "setting": "[6]", "result": "3.5% (inactive)"},
      {"measurement": "inhibition", "setting": "[7]", "result": 50.7, "unit": "%"},
      {"measurement": "inhibition", "setting": "[8]", "result": 58.8, "unit": "%"},
      {"measurement": "inhibition", "setting": "[9]", "result": 98.2, "unit": "%"},
      {"measurement": "inhibition", "setting": "BZP Rat Brain Site", "result": "44.8% (inactive)"},
      {"measurement": "inhibition", "setting": "[10]", "result": "-0.9% (inactive)"},
      {"measurement": "inhibition", "setting": "[11]", "result": "16% (inactive)"},
      {"measurement": "inhibition", "setting": "[12]", "result": 60.5, "unit": "%"},
      {"measurement": "inhibition", "setting": "[13]", "result": "16.4% (inactive)"},
      {"measurement": "inhibition", "setting": "Ca+ Channel", "result": "-19.4% (inactive)"},
      {"measurement": "inhibition", "setting": "[14]", "result": "3.8% (inactive)"},
      {"measurement": "inhibition", "setting": "Cannabinoid receptor CB1", "result": "5% (inactive)"},
      {"measurement": "inhibition", "setting": "[15]", "result": "23.6% (inactive)"},
      {"measurement": "inhibition", "setting": "[16]", "result": "16.8% (inactive)"},
      {"measurement": "inhibition", "setting": "[17]", "result": 59.2, "unit": "%"},
      {"measurement": "inhibition", "setting": "[18]", "result": "-0.5% (inactive)"},
      {"measurement": "inhibition", "setting": "Dopamine receptor D2", "result": "22.6% (inactive)"},
      {"measurement": "inhibition", "setting": "Dopamine receptor D4", "result": "34.7% (inactive)"},
      {"measurement": "inhibition", "setting": "GABA receptor GABAa a1", "result": "16.2% (inactive)"},
      {"measurement": "inhibition", "setting": "GABA receptor GABAa", "result": "25% (inactive)"},
      {"measurement": "inhibition", "setting": "GABA receptor PBR", "result": "32.1% (inactive)"},
      {"measurement": "inhibition", "setting": "[19]", "result": "25% (inactive)"},
      {"measurement": "inhibition", "setting": "Histamine receptor H1", "result": "46.4% (inactive)"},
      {"measurement": "inhibition", "setting": "Histamine receptor H2", "result": "43% (inactive)"},
      {"measurement": "inhibition", "setting": "Histamine receptor H3", "result": "-2.4% (inactive)"},
      {"measurement": "inhibition", "setting": "Histamine receptor H4", "result": "10.1% (inactive)"}
    ]}
  ]
}
